We go through eight compounds from publication PMC11451730, “A Fragment-Based Screen for Inhibitors of Escherichia coli N5-CAIR Mutase” (Research Square, 2024).

For test [1], the target named is T1, E. coli N5-CAIR mutase (Escherichia coli, UniProt P0AG18).
T1 construct: His-tag (inferred from cobalt-resin/imidazole purification); made in house; host or cells: E. coli BL21(DE3), plasmid pJK057 (Addgene)
T1 sequence (P0AG18 1-169): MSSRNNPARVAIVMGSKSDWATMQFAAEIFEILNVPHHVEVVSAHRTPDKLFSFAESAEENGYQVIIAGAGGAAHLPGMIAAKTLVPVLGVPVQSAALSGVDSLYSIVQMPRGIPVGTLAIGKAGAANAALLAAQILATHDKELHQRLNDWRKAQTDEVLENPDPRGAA
The test is described as follows: biochemical. In kind it is biochemical.

Test [2] concerns the target T1, E. coli N5-CAIR mutase. Description: Thermal shift assay (thermal binding assay). The note with it: NAIR 20 μM, eight replicates; enzyme alone 57 ± 0.36°C.
The subject of test [3] is Gallus gallus AIR carboxylase. The test is described as follows: Inhibition of AIR carboxylase by NAIR (literature). In kind it is biochemical.
The target in the next test is bacterial N5-CAIR mutase. The note with it: bacterial enzyme; cited from earlier work.
In test [4] the target is Gallus gallus AIR carboxylase. The note with it: cited from earlier work.

In general, Ki refers to the equilibrium dissociation constant of an inhibitor or competing ligand from its target. As for `CN1CCCC(c2cnc(-c3ncco3)cn2)C1` (stereo not drawn) [Compound 2], at E. coli N5-CAIR mutase [1], the inhibitory constant (Ki) is 4.8 µM and the mechanism of inhibition entry is on record as “sigmoidal Michaelis-Menten curve”.
For the compound `Cc1cnc(-c2ccc(C3CCCNC3)nc2)s1` (stereo not drawn) [Compound 9], at E. coli N5-CAIR mutase [1], the Ki was 83 µM and the mechanism of inhibition result is listed as “competitive”.
Take `CN1CCCC(Cc2cccnc2)C1` (stereo not drawn) [Compound 10]: at E. coli N5-CAIR mutase [1], the “inhibition of enzyme activity” value is listed as “no inhibition”.
Take `Cc1nc(-c2ccc(C3CCCN3)nc2)sc1C` (stereo not drawn) [Compound 22]: at E. coli N5-CAIR mutase [1], the inhibition constant Ki is 159 µM and the mechanism of inhibition entry is “uncompetitive”.
For `c1cnc(CC2CCNC2)nc1` (stereo not drawn) [Compound 25], in that order: 31 µM and “non-competitive”.
Turning to `Cc1ccc(Nc2nnns2)cc1` [Compound 34, reference compound], the “inhibition of E. coli N5-CAIR mutase” value on E. coli N5-CAIR mutase [1] is on record as “do not show inhibition”.
On the same count and under the same terms, the same measure for `CCc1ccc(C(=O)Nc2nncs2)s1` [Compound 35, reference compound]: “do not show inhibition”.
As to `Nc1c([N+](=O)[O-])ncn1[C@@H]1O[C@H](COP(=O)(O)O)[C@@H](O)[C@H]1O` [NAIR, 4-nitro-5-aminoimidazole ribonucleotide], the “average melting temperature of N5-CAIR mutase with compound bound” value at E. coli N5-CAIR mutase [2] amounted to 75 ± 0.32 °C. Moreover, the “selectivity for AIR carboxylase over N5-CAIR mutase” value in test [3] is reported as 1000 fold. Besides, the inhibitory constant (Ki) was 500 nM at bacterial N5-CAIR mutase and 0.34 nM in test [4].
